# From patent publication US20070128217A1 (priority 2003, published 2007)
# How the values were obtained:
# [1] = system: rabbit serum obtained by immunizing a rabbit with the SARS-CoV strain Frankfurt 1; assay type: binding; design: Binding of a rabbit serum to linear peptides / Binding of a rabbit serum to looped peptides / Rabbit serum linear peptides / Rabbit serum looped peptides / Binding of a rabbit serum to linear peptides of protein N of SARS-CoV Urbani (Rabbit serum linear peptides) / Binding of a rabbit serum to looped/cyclic peptides of protein N of SARS-CoV Urbani (Rabbit serum looped peptides): unit not given here
# [2] = system: antibodies in sera from SARS patients (sera 1a, 1b, 2, 6, 37, 62, London, SARS-yellow, SARS-green); assay type: binding, human; design: Binding of serum 6 to linear peptides of protein X1 of SARS-CoV Urbani / Binding of serum 37 to linear peptides of protein X1 of SARS-CoV Urbani / Binding of serum 6 to looped/cyclic peptide (PEPSCAN-ELISA) / Binding of serum 37 to looped/cyclic peptide (PEPSCAN-ELISA) / Binding of serum 37 to looped/cyclic peptides of protein X1 of SARS-CoV Urbani / Binding of serum 6 to linear peptides of protein X2 / Binding of serum 37 to linear peptides of protein X2 / Binding of serum 37 to looped/cyclic peptides of protein X2 of SARS-CoV Urbani / Binding of serum 6 to linear peptides of protein M of SARS-CoV Urbani / Binding of serum 37 to linear peptides of protein M of SARS-CoV Urbani / Binding of serum 6 to looped/cyclic peptides of protein M of SARS-CoV Urbani / Binding of serum 37 to looped/cyclic peptides of protein M of SARS-CoV Urbani / Binding of serum 6 to linear peptides of protein X3 of SARS-CoV Urbani / Binding of serum 37 to linear peptides of protein X3 of SARS-CoV Urbani / Binding of serum 37 to looped/cyclic peptides of protein X3 of SARS-CoV Urbani / Binding of serum 6 to linear peptides of protein X4 of SARS-CoV Urbani / Binding of serum 37 to linear peptides of protein X4 of SARS-CoV Urbani / Binding of serum 37 to looped/cyclic peptides of protein X4 of SARS-CoV Urbani / Binding of serum 6 to linear peptides of protein X5 of SARS-CoV Urbani / Binding of serum 37 to linear peptides of protein X5 of SARS-CoV Urbani / Binding of serum 37 to looped/cyclic peptides of protein X5 of SARS-CoV Urbani / Binding of serum 6 to linear peptides of protein N of SARS-CoV Urbani / Binding of serum 37 to linear peptides of protein N of SARS-CoV Urbani / Binding of serum 6 to linear peptide (PEPSCAN-ELISA) / Binding of serum 1a to looped/cyclic peptides of protein N of SARS-CoV Urbani / Binding of serum 1b to looped/cyclic peptides of protein N of SARS-CoV Urbani / Binding of serum 2 to looped/cyclic peptides of protein N of SARS-CoV Urbani / Binding of serum 6 to looped/cyclic peptides of protein N of SARS-CoV Urbani / Binding of serum 37 to looped/cyclic peptides of protein N of SARS-CoV Urbani / Binding of serum 62 to looped/cyclic peptides of protein N of SARS-CoV Urbani / Binding of serum London to looped/cyclic peptides of protein N of SARS-CoV Urbani / Binding of serum SARS-green to looped/cyclic peptides of protein N of SARS-CoV Urbani: unit not given here
# [3] = system: control sera (pooled serum of ten healthy LUMC hospital workers; commercial negative donor pooled serum from the Dutch bloodbank); assay type: binding, human; design: Binding of Control serum LUMC to linear peptides / Binding of Control serum Blood-bank to linear peptides / Binding of Control serum LUMC to looped peptides / Binding of Control Serum Blood-Bank to Looped peptides / Binding of Control serum LUMC to linear peptides of the protein M of SARS-CoV Urbani / Binding of Control serum Blood-bank to linear peptides of the protein M of SARS-CoV Urbani / Binding of Control serum LUMC to looped peptides of the protein M of SARS-CoV Urbani / Binding of Control Serum Blood-Bank to Looped peptides of the protein M of SARS-CoV Urbani: unit not given here
sequence,measurement,setting,value
AGTHITMTTVYHITV,Binding of a rabbit serum to linear peptides,[1],0.7
same,Binding of a rabbit serum to looped peptides,[1],0.5
ASPASTVHATATIPL,Binding of a rabbit serum to linear peptides,[1],1.4
same,Binding of a rabbit serum to looped peptides,[1],0.5
ASTVHATATIPLQAS,Binding of a rabbit serum to linear peptides,[1],0.9
same,Binding of a rabbit serum to looped peptides,[1],0.6
ATKIIALNKRWQLAL,Binding of serum 1a to linear peptides of protein X1 of SARS-CoV Urbani,[2],0.7
same,Binding of serum 1a to looped/cyclic peptide (PEPSCAN-ELISA),[2],0.6
same,Binding of serum 1b to linear peptides of protein X1 of SARS-CoV Urbani,[2],0.6
same,Binding of serum 1b to looped/cyclic peptide (PEPSCAN-ELISA),[2],0.4
same,Binding of serum 2 to linear peptides of protein X1 of SARS-CoV Urbani,[2],0.6
same,Binding of serum 2 to looped/cyclic peptide (PEPSCAN-ELISA),[2],0.5
same,Binding of serum 6 to linear peptides of protein X1 of SARS-CoV Urbani,[2],0.7
same,Binding of serum 6 to looped/cyclic peptide (PEPSCAN-ELISA),[2],0.5
same,Binding of serum 37 to linear peptides of protein X1 of SARS-CoV Urbani,[2],0.8
same,Binding of serum 37 to looped/cyclic peptide (PEPSCAN-ELISA),[2],0.6
same,Binding of serum 62 to linear peptides of protein X1 of SARS-CoV Urbani,[2],0.8
same,Binding of serum 62 to looped/cyclic peptide (PEPSCAN-ELISA),[2],0.7
same,Binding of serum London to linear peptides of protein X1 of SARS-CoV Urbani,[2],0.4
same,Binding of serum London to looped/cyclic peptide (PEPSCAN-ELISA),[2],0.3
same,Binding of serum SARS-green to linear peptides of protein X1 of SARS-CoV Urbani,[2],0.3
same,Binding of serum SARS-green to looped/cyclic peptide (PEPSCAN-ELISA),[2],0.3
same,Binding of serum SARS-yellow to linear peptides of protein X1 of SARS-CoV Urbani,[2],0.7
same,Binding of serum SARS-yellow to looped/cyclic peptide (PEPSCAN-ELISA),[2],0.6
same,Recognition of the peptide by the rabbit serum,[1],recognized
CPSGTYEGNSPFNPL,Rabbit serum linear peptides,[1],0.5
same,Rabbit serum looped peptides,[1],0.7
CWYLHEGHQTAAFRD,Rabbit serum linear peptides,[1],0.3
same,Rabbit serum looped peptides,[1],0.4
GFQFICNLLLLFVTI,Binding of serum 1a to linear peptides of protein X1 of SARS-CoV Urbani,[2],0.6
same,Binding of serum 1a to looped/cyclic peptide (PEPSCAN-ELISA),[2],0.5
same,Binding of serum 1b to linear peptides of protein X1 of SARS-CoV Urbani,[2],0.5
same,Binding of serum 1b to looped/cyclic peptide (PEPSCAN-ELISA),[2],0.3
same,Binding of serum 2 to linear peptides of protein X1 of SARS-CoV Urbani,[2],0.5
same,Binding of serum 2 to looped/cyclic peptide (PEPSCAN-ELISA),[2],0.3
same,Binding of serum 6 to linear peptides of protein X1 of SARS-CoV Urbani,[2],0.4
same,Binding of serum 6 to looped/cyclic peptide (PEPSCAN-ELISA),[2],0.3
same,Binding of serum 37 to linear peptides of protein X1 of SARS-CoV Urbani,[2],0.5
same,Binding of serum 37 to looped/cyclic peptide (PEPSCAN-ELISA),[2],0.5
same,Binding of serum 62 to linear peptides of protein X1 of SARS-CoV Urbani,[2],0.6
same,Binding of serum 62 to looped/cyclic peptide (PEPSCAN-ELISA),[2],0.5
same,Binding of serum London to linear peptides of protein X1 of SARS-CoV Urbani,[2],0.3
same,Binding of serum London to looped/cyclic peptide (PEPSCAN-ELISA),[2],0.2
same,Binding of serum SARS-green to linear peptides of protein X1 of SARS-CoV Urbani,[2],0.2
same,Binding of serum SARS-green to looped/cyclic peptide (PEPSCAN-ELISA),[2],0.2
same,Binding of serum SARS-yellow to linear peptides of protein X1 of SARS-CoV Urbani,[2],0.5
same,Binding of serum SARS-yellow to looped/cyclic peptide (PEPSCAN-ELISA),[2],0.4
same,Binding of Control Serum Blood-Bank to Looped peptides,[3],0.4
same,Binding of Control serum Blood-bank to linear peptides,[3],0.4
same,Binding of Control serum LUMC to linear peptides,[3],0.5
same,Binding of Control serum LUMC to looped peptides,[3],0.5
GHLRMAGHPLGRCDI,Rabbit serum linear peptides,[1],0.4
same,Rabbit serum looped peptides,[1],0.7
GHPLGRCDTKDLPKE,Rabbit serum linear peptides,[1],0.3
same,Rabbit serum looped peptides,[1],0.0
GNSPFHPLADNKFAL,Rabbit serum linear peptides,[1],0.5
same,Rabbit serum looped peptides,[1],1.0
GTHITMTTVYHITVS,Binding of a rabbit serum to linear peptides,[1],2.1
same,Binding of a rabbit serum to looped peptides,[1],0.4
HEGHQTAAFRDVLVV,Rabbit serum linear peptides,[1],0.2
same,Rabbit serum looped peptides,[1],0.8
IARCWYLHEGHQTAA,Rabbit serum linear peptides,[1],0.7
same,Rabbit serum looped peptides,[1],0.3
IIRGHLRMAGHPLGR,Rabbit serum linear peptides,[1],0.6
same,Rabbit serum looped peptides,[1],2.0
IMRCWLCWKGKSKNP,Binding of a rabbit serum to linear peptides,[1],0.1
same,Binding of a rabbit serum to looped peptides,[1],0.3
KQLLEQWNLVIGFLF,Binding of serum 1a to linear peptides of protein M of SARS-CoV Urbani,[2],0.7
same,Binding of serum 1a to looped/cyclic peptides of protein M of SARS-CoV Urbani,[2],0.7
same,Binding of serum 1b to linear peptides of protein M of SARS-CoV Urbani,[2],0.6
same,Binding of serum 1b to looped/cyclic peptides of protein M of SARS-CoV Urbani,[2],0.6
same,Binding of serum 2 to linear peptides of protein M of SARS-CoV Urbani,[2],0.4
same,Binding of serum 2 to looped/cyclic peptides of protein M of SARS-CoV Urbani,[2],0.5
same,Binding of serum 6 to linear peptides of protein M of SARS-CoV Urbani,[2],0.3
same,Binding of serum 6 to looped/cyclic peptides of protein M of SARS-CoV Urbani,[2],1.0
same,Binding of serum 37 to linear peptides of protein M of SARS-CoV Urbani,[2],0.3
same,Binding of serum 37 to looped/cyclic peptides of protein M of SARS-CoV Urbani,[2],0.5
same,Binding of serum 62 to linear peptides of protein M of SARS-CoV Urbani,[2],0.4
same,Binding of serum 62 to looped/cyclic peptides of protein M of SARS-CoV Urbani,[2],0.7
same,Binding of serum London to linear peptides of protein M of SARS-CoV Urbani,[2],0.3
same,Binding of serum London to looped/cyclic peptides of protein M of SARS-CoV Urbani,[2],0.3
same,Binding of serum SARS-green to linear peptides of protein M of SARS-CoV Urbani,[2],0.4
same,Binding of serum SARS-green to looped/cyclic peptides of protein M of SARS-CoV Urbani,[2],0.4
same,Binding of serum SARS-yellow to linear peptides of protein M of SARS-CoV Urbani,[2],0.2
same,Binding of serum SARS-yellow to looped/cyclic peptides of protein M of SARS-CoV Urbani,[2],0.8
same,Binding of Control Serum Blood-Bank to Looped peptides of the protein M of SARS-CoV Urbani,[3],0.6
same,Binding of Control serum Blood-bank to linear peptides of the protein M of SARS-CoV Urbani,[3],0.5
same,Binding of Control serum LUMC to linear peptides of the protein M of SARS-CoV Urbani,[3],0.6
same,Binding of Control serum LUMC to looped peptides of the protein M of SARS-CoV Urbani,[3],0.7
LFAGTHITMTTVYHI,Binding of a rabbit serum to linear peptides,[1],0.6
same,Binding of a rabbit serum to looped peptides,[1],0.5
MMPTTLFAGTHITMT,Binding of a rabbit serum to linear peptides,[1],0.6
same,Binding of a rabbit serum to looped peptides,[1],0.6
MPTTLFAGTHITMTT,Binding of a rabbit serum to linear peptides,[1],0.7
same,Binding of a rabbit serum to looped peptides,[1],0.3
MVQTCTPNVTINCQD,Rabbit serum linear peptides,[1],0.5
same,Rabbit serum looped peptides,[1],0.2
NASPASTVHATATIP,Binding of a rabbit serum to linear peptides,[1],0.6
same,Binding of a rabbit serum to looped peptides,[1],0.3
NSPFHPLADNKFALT,Rabbit serum linear peptides,[1],0.5
same,Rabbit serum looped peptides,[1],0.7
PASTVHATATIPLQA,Binding of a rabbit serum to linear peptides,[1],0.9
same,Binding of a rabbit serum to looped peptides,[1],0.5
PTTLFAGTHITMTTV,Binding of a rabbit serum to linear peptides,[1],0.8
same,Binding of a rabbit serum to looped peptides,[1],0.4
SPASTVHATATIPLQ,Binding of a rabbit serum to linear peptides,[1],1.0
same,Binding of a rabbit serum to looped peptides,[1],0.4
STVHATATIPLQASL,Binding of a rabbit serum to linear peptides,[1],0.6
same,Binding of a rabbit serum to looped peptides,[1],0.5
TITVEELKQLLEQWN,Recognition of the peptide by the rabbit serum,[1],recognized
TLFAGTHITMTTVYH,Binding of a rabbit serum to linear peptides,[1],0.7
same,Binding of a rabbit serum to looped peptides,[1],0.5
TTLFAGTHITMTTVY,Binding of a rabbit serum to linear peptides,[1],0.6
same,Binding of a rabbit serum to looped peptides,[1],0.3
VEELKQLLEQWNLVI,Recognition of the peptide by the rabbit serum,[1],recognized
YEGNSPFHPLADNKF,Rabbit serum linear peptides,[1],0.6
same,Rabbit serum looped peptides,[1],0.5
YLHEGHQTAAFRDVL,Rabbit serum linear peptides,[1],0.2
same,Rabbit serum looped peptides,[1],0.6
